Results from patent US8889705B2, “Noscapine analogs and their use in treating cancers” (Emory University, priority 2007, dated 2014).
pIC50: −log10 of the molar value.

Assays:
CEM/VLB100 cells [1] = test: Cell cycle analysis (propidium iodide, flow cytometry); format: cell-based, human; conditions: CEM/VLB100, 25 μM
Method: (§1) The flow cytometric evaluation of the cell cycle status was performed as described previously (Zhou et al., 2003). Briefly, 2×10^6 cells were centrifuged, washed twice with ice-cold PBS, and fixed in 70% ethanol. Tubes containing the cell pellets were stored at 4° C. for at least 24 hours. Cells were then centrifuged at 1000×g for 10 min and the supernatant was discarded. The pellets were washed twice with 5 ml of PBS and then stained with 0.5 ml of propidium iodide (0.1% in 0.6% Triton-X in PBS) and 0.5 ml of RNase A (2 mg/ml) for 45 minutes in dark. Samples were then analyzed on a FACSCalibur flow cytometer (Beckman Coulter Inc., Fullerton, Calif.).

1A9 cells = test: as above; format: cell-based, human; conditions: 1A9, 50 μM
Method: as §1

1A9/PTX22 cells [2] = test: as above; format: cell-based, human; conditions: 1A9/PTX22, 50 μM
Method: as §1

CEM cells = test: as above; format: cell-based, human; conditions: 25 μM
Method: as §1

CEM/VM-1-5 cells [3] = test: as above; format: cell-based, human; conditions: CEM/VM-1-5, 25 μM
Method: as §1

CEM/VLB100 cells [4] = test: In vitro cell proliferation MTS assay; format: cell-based; conditions: Homo sapiens, CEM/VLB100, 72 hours
Method: (§2) Suspension cells (CEM, CEMNLB100 and CEM/VM-1-5) were cultured in RPMI-1640 media containing 10% FBS and then seeded into 96-well plates at a density of 5×10^3 cells per well and were treated with increasing gradient concentrations of 9-nitro-nos for 72 hours. Measurement of cell proliferation was performed colorimetrically by 3-(4,5-dimethylthiazol-2-yl)-5-(3-carboxymethoxyphenyl)-2-(4-sulphophenyl)-2H-tetrazolium, inner salt (MTS) assay, using the CellTiter96 AQueous One Solution Reagent (Promega, Madison, Wis.). Cells were exposed to MTS for 3 hours and absorbance was measured using a microplate reader (Molecular Devices, Sunnyvale, Calif.) at an optical density (OD) of 490 nm. The percentage of cell survival as a function of drug concentration for both the assays was then plotted to determine the IC50 value, which stands for the drug concentration needed to prevent cell proliferation by 50%.

CEM/VM-1-5 cells [5] = test: In vitro cell proliferation MTS assay; format: cell-based; conditions: Homo sapiens, CEM/VM-1-5, 72 hours
Method: as §2

1A9/PTX22 cells [6] = test: TUNEL assay for apoptosis (flow cytometry); format: cell-based, human; conditions: 1A9/PTX22, 50 μM, 72 hours
Method: DNA strand breaks were identified by using the TUNEL assay as described. In brief, 1A9/PTX22 cells were incubated with 50 μM 9-nitro-nos for 72 hours. Cells were pelleted and washed with ice-cold PBS twice. Cells were then fixed in 1% paraformaldehyde, and apoptosis was detected using the APO-BrdU TUNEL Assay Kit from Molecular Probes (Eugene, Oreg.) according to the manufacturer's instructions. This assay was run on a flow cytometer equipped with a 488 nm argon laser as the light source. Propidium iodide (total cellular DNA) and Alexa-Fluor 488 (apoptotic cells) were the two dyes used. PI fluoresces at about 623 nm and Alexa-Fluor 488 at about 520 nm when excited at 488 nm. […] The gating display was the standard dual parameter DNA doublet discrimination display with the DNA area signal on the Y-axis and the DNA width signal on the X-axis. From this display, a gate was generated around the non-clumped cells and the second gated dual parameter display was generated with the DNA (linear red fluorescence) on the X-axis and the Alexa-Fluor 488 (log green fluorescence) on the Y-axis. Apoptotic cells were subsequently counted as those expressing high Alexa-Fluor 488 fluorescence. Confocal micrographs were also obtained for the TUNEL-stained cells using a 63× objective.

`COc1ccc2c(c1OC)C(=O)O[C@@H]2[C@H]1c2c(c([N+](=O)[O-])c3c(c2OC)OCO3)CCN1C` [9-nitro-nos, (S)-6,7-dimethoxy-3-((R)-4-methoxy-6-methyl-9-nitro-5,6,7,8-tetrahydro-[1,3]dioxolo[4,5-g]isoquinolin-5-yl)isobenzofuran-1(3H)-one] showed a G0/G1 (CEM/VLB100 cells [1]; 0 h) of 46.9%, a G2/M (CEM/VLB100 cells [1]; 0 h) of 25.7% and an S (CEM/VLB100 cells [1]; 0 h) of 17.6%. For the same compound, the Sub-G1 (CEM/VLB100 cells [1]; 0 h) was 3.6%, the G0/G1 (CEM/VLB100 cells [1]; 24 h) was 25.5% and the G2/M (CEM/VLB100 cells [1]; 24 h) was 36.0%. The S (CEM/VLB100 cells [1]; 24 h) was 17.7%, the Sub-G1 (CEM/VLB100 cells [1]; 24 h) was 14.8% and the G0/G1 (CEM/VLB100 cells [1]; 48 h) was 23.7%. The G2/M (CEM/VLB100 cells [1]; 48 h) was 30.2%, the S (CEM/VLB100 cells [1]; 48 h) was 9.3% and the Sub-G1 (CEM/VLB100 cells [1]; 48 h) was 30.7%. For the same compound, the G0/G1 (CEM/VLB100 cells [1]; 72 h) was 8.7%, the G2/M (CEM/VLB100 cells [1]; 72 h) was 12.5% and the S (CEM/VLB100 cells [1]; 72 h) was 4.5%. It also gave a Sub-G1 (CEM/VLB100 cells [1]; 72 h) of 56.1%, a G0/G1 (1A9 cells; 0 h) of 50.0% and a G2/M (1A9 cells; 0 h) of 21.2%. The S (1A9 cells; 0 h) was 21.8%, the Sub-G1 (1A9 cells; 0 h) was 0.7% and the G0/G1 (1A9 cells; 24 h) was 30.6%. For the same compound, the G2/M (1A9 cells; 24 h) was 34.2%, the S (1A9 cells; 24 h) was 14.3% and the Sub-G1 (1A9 cells; 24 h) was 12.0%. For the same compound, the G0/G1 (1A9 cells; 48 h) was 28.6%, the G2/M (1A9 cells; 48 h) was 17.2% and the S (1A9 cells; 48 h) was 10.6%. For the same compound, the Sub-G1 (1A9 cells; 48 h) was 38.0%, the G0/G1 (1A9 cells; 72 h) was 16.7% and the G2/M (1A9 cells; 72 h) was 9.0%. The S (1A9 cells; 72 h) was 9.6%, the Sub-G1 (1A9 cells; 72 h) was 56.3% and the G0/G1 (1A9/PTX22 cells [2]; 0 h) was 57.0%. For the same compound, the G2/M (1A9/PTX22 cells [2]; 0 h) was 20.4%, the S (1A9/PTX22 cells [2]; 0 h) was 8.8% and the Sub-G1 (1A9/PTX22 cells [2]; 0 h) was 3.5%. For the same compound, the G0/G1 (1A9/PTX22 cells [2]; 24 h) was 27.3%, the G2/M (1A9/PTX22 cells [2]; 24 h) was 31.4% and the S (1A9/PTX22 cells [2]; 24 h) was 4.7%. It also gave a Sub-G1 (1A9/PTX22 cells [2]; 24 h) of 30.0%, a G0/G1 (1A9/PTX22 cells [2]; 48 h) of 5.9% and a G2/M (1A9/PTX22 cells [2]; 48 h) of 44.3%. It also gave an S (1A9/PTX22 cells [2]; 48 h) of 3.4%, a Sub-G1 (1A9/PTX22 cells [2]; 48 h) of 44.6% and a G0/G1 (1A9/PTX22 cells [2]; 72 h) of 14.1%. For the same compound, the G2/M (1A9/PTX22 cells [2]; 72 h) was 13.7%, the S (1A9/PTX22 cells [2]; 72 h) was 5.7% and the Sub-G1 (1A9/PTX22 cells [2]; 72 h) was 59.0%. It also gave a G0/G1 (CEM cells; 0 h) of 45.5%, a G2/M (CEM cells; 0 h) of 20.9% and an S (CEM cells; 0 h) of 25.0%. The Sub-G1 (CEM cells; 0 h) was 0.25%, the G0/G1 (CEM cells; 24 h) was 24.8% and the G2/M (CEM cells; 24 h) was 34.2%. The S (CEM cells; 24 h) was 10.0%, the Sub-G1 (CEM cells; 24 h) was 6.5% and the G0/G1 (CEM cells; 48 h) was 19.7%. It also gave a G2/M (CEM cells; 48 h) of 40.0%, an S (CEM cells; 48 h) of 8.1% and a Sub-G1 (CEM cells; 48 h) of 23.8%. The G0/G1 (CEM cells; 72 h) was 13.9%, the G2/M (CEM cells; 72 h) was 16.9% and the S (CEM cells; 72 h) was 8.9%. For the same compound, the Sub-G1 (CEM cells; 72 h) was 44.3%, the G0/G1 (CEM/VM-1-5 cells [3]; 0 h) was 36.0% and the G2/M (CEM/VM-1-5 cells [3]; 0 h) was 30.7%. The S (CEM/VM-1-5 cells [3]; 0 h) was 19.4%, the Sub-G1 (CEM/VM-1-5 cells [3]; 0 h) was 3.4% and the G0/G1 (CEM/VM-1-5 cells [3]; 24 h) was 25.4%. The G2/M (CEM/VM-1-5 cells [3]; 24 h) was 41.0%, the S (CEM/VM-1-5 cells [3]; 24 h) was 13.0% and the Sub-G1 (CEM/VM-1-5 cells [3]; 24 h) was 18.8%. It also gave a G0/G1 (CEM/VM-1-5 cells [3]; 48 h) of 13.7%, a G2/M (CEM/VM-1-5 cells [3]; 48 h) of 15.0% and an S (CEM/VM-1-5 cells [3]; 48 h) of 11.0%. It also gave a Sub-G1 (CEM/VM-1-5 cells [3]; 48 h) of 58.0%, a G0/G1 (CEM/VM-1-5 cells [3]; 72 h) of 10.5% and a G2/M (CEM/VM-1-5 cells [3]; 72 h) of 12.2%. The S (CEM/VM-1-5 cells [3]; 72 h) was 8.7%, the Sub-G1 (CEM/VM-1-5 cells [3]; 72 h) was 63.0% and the pIC50 (CEM/VLB100 cells [4]) was 5.09. For the same compound, the pIC50 (CEM/VM-1-5 cells [5]) was 5.16 and the TUNEL-positive cells (1A9/PTX22 cells [6]) was 55.9%.
